{
  "source": "the NIST ThermoML archive (doi:10.1007/s10765-006-0092-8)",
  "conditions": "gamma-ray densimeter",
  "note": "Numbers after ± are expanded uncertainties.",
  "data": [
    {"smiles": "Fc1c(F)c(F)c(F)c(F)c1F", "note": "[hexafluorobenzene]", "values": [
      {"measurement": "mass density", "setting": "298.79 K, Liquid", "value": "1605.4 ± 3", "unit": "kg/m3"},
      {"measurement": "mass density", "setting": "323.83 K, Gas", "value": 2.3, "unit": "kg/m3"},
      {"measurement": "mass density", "setting": "323.83 K, Liquid", "value": "1548.5 ± 3", "unit": "kg/m3"},
      {"measurement": "mass density", "setting": "343.88 K, Liquid", "value": "1499.4 ± 3", "unit": "kg/m3"},
      {"measurement": "mass density", "setting": "363.85 K, Liquid", "value": "1450.5 ± 3", "unit": "kg/m3"},
      {"measurement": "mass density", "setting": "383.91 K, Gas", "value": "15.5 ± 3", "unit": "kg/m3"},
      {"measurement": "mass density", "setting": "383.91 K, Liquid", "value": "1397.9 ± 3", "unit": "kg/m3"},
      {"measurement": "mass density", "setting": "403.92 K, Gas", "value": "25.8 ± 3", "unit": "kg/m3"},
      {"measurement": "mass density", "setting": "403.92 K, Liquid", "value": "1342.1 ± 3", "unit": "kg/m3"},
      {"measurement": "mass density", "setting": "423.93 K, Gas", "value": "40.6 ± 3", "unit": "kg/m3"},
      {"measurement": "mass density", "setting": "423.93 K, Liquid", "value": "1281.2 ± 3", "unit": "kg/m3"},
      {"measurement": "mass density", "setting": "443.9 K, Gas", "value": "62.7 ± 3", "unit": "kg/m3"},
      {"measurement": "mass density", "setting": "443.9 K, Liquid", "value": "1213.9 ± 3", "unit": "kg/m3"},
      {"measurement": "mass density", "setting": "463.89 K, Gas", "value": "95.3 ± 3", "unit": "kg/m3"},
      {"measurement": "mass density", "setting": "463.89 K, Liquid", "value": "1135.3 ± 3", "unit": "kg/m3"},
      {"measurement": "mass density", "setting": "483.9 K, Gas", "value": "146.7 ± 3", "unit": "kg/m3"},
      {"measurement": "mass density", "setting": "483.9 K, Liquid", "value": "1037.1 ± 3.1", "unit": "kg/m3"},
      {"measurement": "mass density", "setting": "493.93 K, Gas", "value": "186 ± 3", "unit": "kg/m3"},
      {"measurement": "mass density", "setting": "493.93 K, Liquid", "value": "974 ± 3.1", "unit": "kg/m3"},
      {"measurement": "mass density", "setting": "503.88 K, Gas", "value": "243.5 ± 3.1", "unit": "kg/m3"},
      {"measurement": "mass density", "setting": "503.88 K, Liquid", "value": "892.3 ± 3.1", "unit": "kg/m3"},
      {"measurement": "mass density", "setting": "508.9 K, Gas", "value": "287 ± 3.2", "unit": "kg/m3"},
      {"measurement": "mass density", "setting": "508.9 K, Liquid", "value": "835.8 ± 3.3", "unit": "kg/m3"},
      {"measurement": "mass density", "setting": "513.91 K, Gas", "value": "363.5 ± 3.6", "unit": "kg/m3"},
      {"measurement": "mass density", "setting": "513.91 K, Liquid", "value": "744.6 ± 3.7", "unit": "kg/m3"},
      {"measurement": "mass density", "setting": "513.92 K, Gas", "value": "363.5 ± 3.6", "unit": "kg/m3"},
      {"measurement": "mass density", "setting": "513.92 K, Liquid", "value": "746.3 ± 3.7", "unit": "kg/m3"},
      {"measurement": "mass density", "setting": "515.98 K, Gas", "value": "433.7 ± 10", "unit": "kg/m3"},
      {"measurement": "mass density", "setting": "515.98 K, Liquid", "value": "670.3 ± 11", "unit": "kg/m3"},
      {"measurement": "mass density", "setting": "516.28 K, Gas", "value": "455.8 ± 10", "unit": "kg/m3"},
      {"measurement": "mass density", "setting": "516.28 K, Liquid", "value": "644.8 ± 11", "unit": "kg/m3"},
      {"measurement": "mass density", "setting": "516.57 K, Gas", "value": "491.5 ± 10", "unit": "kg/m3"},
      {"measurement": "mass density", "setting": "516.57 K, Liquid", "value": "610.1 ± 11", "unit": "kg/m3"}
    ]}
  ]
}
